Experimental data taken from ChEMBL document CHEMBL4350988, “Development of selective small molecule MDM2 degraders based on nutlin” (Eur J Med Chem, 2019).
Blank lines part the entries; values can stand above or below the molecule they belong to. The source made the active and inactive calls. The rule behind the calls is not given here.

How the values were obtained:
RS4-11 [1] = test: Antiproliferative activity against human RS4:11 cells assessed as reduction in cell viability at 100 nM after 48 hrs by MTT assay; format: functional, cell-based
[2] = molecular target: T1, Protein cereblon/E3 ubiquitin-protein ligase Mdm2 (Homo sapiens, UniProt Q00987+Q96SW2); test: Protac activity at CRBN/MDM2 in human RS4:11 cells assessed as MDM2 degradation by Western blot analysis; format: cell-based
RS4-11 [3] = test: Induction of apoptosis in human RS4:11 cells assessed as viable cells at 100 nM after 24 hrs by Annexin-V-FITC/propidium iodide staining based flow cytometry relative to control; format: functional; conditions: RS4-11, 24 h, read-out: Activity
RS4-11 [4] = test: Induction of apoptosis in human RS4:11 cells assessed as necrotic cells at 100 nM after 24 hrs by Annexin-V-FITC/propidium iodide staining based flow cytometry relative to control; format: functional
[5] = molecular target: T1, Protein cereblon/E3 ubiquitin-protein ligase Mdm2; test: Protac activity at CRBN/MDM2 in human RS4:11 cells assessed as degradation of MDM2 at 100 nM to 1 uM by Westernblot analysis; format: cell-based
Target sequence in this assay (Q00987 whole entry, looked up): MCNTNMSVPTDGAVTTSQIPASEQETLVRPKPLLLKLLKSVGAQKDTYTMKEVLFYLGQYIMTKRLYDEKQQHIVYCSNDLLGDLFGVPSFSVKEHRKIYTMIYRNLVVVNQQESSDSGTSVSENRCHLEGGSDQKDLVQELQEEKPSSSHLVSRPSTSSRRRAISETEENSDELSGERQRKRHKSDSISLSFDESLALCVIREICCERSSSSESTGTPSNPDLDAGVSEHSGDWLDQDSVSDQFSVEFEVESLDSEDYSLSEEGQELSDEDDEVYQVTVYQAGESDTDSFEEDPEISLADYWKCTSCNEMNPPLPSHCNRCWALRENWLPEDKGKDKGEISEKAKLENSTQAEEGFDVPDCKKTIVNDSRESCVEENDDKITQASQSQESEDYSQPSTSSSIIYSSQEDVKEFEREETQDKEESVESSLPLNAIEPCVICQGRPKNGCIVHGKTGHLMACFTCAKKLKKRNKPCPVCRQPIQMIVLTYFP
Target sequence in this assay (Q96SW2 whole entry, looked up): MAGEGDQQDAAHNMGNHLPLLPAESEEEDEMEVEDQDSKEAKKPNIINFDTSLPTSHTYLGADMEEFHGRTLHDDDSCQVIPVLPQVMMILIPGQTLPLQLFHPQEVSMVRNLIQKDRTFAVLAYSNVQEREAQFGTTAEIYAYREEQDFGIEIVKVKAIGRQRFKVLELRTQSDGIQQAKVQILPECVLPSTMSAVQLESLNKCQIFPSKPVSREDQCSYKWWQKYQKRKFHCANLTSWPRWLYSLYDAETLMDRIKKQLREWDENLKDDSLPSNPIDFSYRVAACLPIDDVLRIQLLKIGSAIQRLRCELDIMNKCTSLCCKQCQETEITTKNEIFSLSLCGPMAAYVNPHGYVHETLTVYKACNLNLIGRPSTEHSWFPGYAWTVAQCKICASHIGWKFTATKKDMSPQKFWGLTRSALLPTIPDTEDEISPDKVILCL

[6] = molecular target: T1, Protein cereblon/E3 ubiquitin-protein ligase Mdm2; test: (§1) Protac activity at CRBN/MDM2 in human RS4:11 cells assessed as reduction in MDM2 degradation at 100 nM preincubated with lenalidomide for 2 hrs followed by compound addition measured after 4 hrs by Western blot analysis; format: cell-based
Target sequence in this assay (Q00987 whole entry, looked up): as the sequence (Q00987 whole entry, looked up) above
Target sequence in this assay (Q96SW2 whole entry, looked up): as the sequence (Q96SW2 whole entry, looked up) above

RS4-11 [7] = test: Induction of apoptosis in human RS4:11 cells assessed as early apoptotic cells at 1000 nM after 24 hrs by Annexin-V-FITC/propidium iodide staining based flow cytometry relative to control; format: functional
[8] = molecular target: T1, Protein cereblon/E3 ubiquitin-protein ligase Mdm2; test: Protac activity at CRBN/MDM2 in human RS4:11 cells assessed as increase in degradation of MDM2 at 10 to 100 nM measured after 12 hrs by Western blot analysis; format: cell-based
Target sequence in this assay (Q00987 whole entry, looked up): as the sequence (Q00987 whole entry, looked up) above
Target sequence in this assay (Q96SW2 whole entry, looked up): as the sequence (Q96SW2 whole entry, looked up) above

RS4-11 [9] = test: Induction of apoptosis in human RS4:11 cells assessed as early apoptotic cells at 10 nM after 24 hrs by Annexin-V-FITC/propidium iodide staining based flow cytometry relative to control; format: functional
[10] = molecular target: T1, Protein cereblon/E3 ubiquitin-protein ligase Mdm2; test: Protac activity at CRBN/MDM2 in human RS4:11 cells assessed as increase in degradation of MDM2 at 100 nM by Western blot analysis; format: cell-based
Target sequence in this assay (Q00987 whole entry, looked up): as the sequence (Q00987 whole entry, looked up) above
Target sequence in this assay (Q96SW2 whole entry, looked up): as the sequence (Q96SW2 whole entry, looked up) above

[11] = molecular target: T1, Protein cereblon/E3 ubiquitin-protein ligase Mdm2; test: Protac activity at CRBN/MDM2 in human RS4:11 cells assessed as increase in degradation of MDM2 by Western blot analysis; format: cell-based; conditions: TDE = time-dependent effect
Target sequence in this assay (Q00987 whole entry, looked up): as the sequence (Q00987 whole entry, looked up) above
Target sequence in this assay (Q96SW2 whole entry, looked up): as the sequence (Q96SW2 whole entry, looked up) above

[12] = molecular target: T1, Protein cereblon/E3 ubiquitin-protein ligase Mdm2; test: Protac activity at CRBN/MDM2 in human RS4:11 cells assessed as upregulation of P53 expression at 100 nM to 1 uM by Westernblot analysis; format: cell-based
Target sequence in this assay (Q00987 whole entry, looked up): as the sequence (Q00987 whole entry, looked up) above
Target sequence in this assay (Q96SW2 whole entry, looked up): as the sequence (Q96SW2 whole entry, looked up) above

RS4-11 [13] = test: Induction of apoptosis in human RS4:11 cells assessed as PARP cleavage at 100 nM to 1 uM by Westernblot analysis; format: functional, cell-based
RS4-11 [14] = test: Induction of apoptosis in human RS4:11 cells assessed as late apoptotic cells at 10 nM after 24 hrs by Annexin-V-FITC/propidium iodide staining based flow cytometry relative to control; format: functional
[15] = molecular target: T1, Protein cereblon/E3 ubiquitin-protein ligase Mdm2; test: Protac activity at CRBN/MDM2 in human RS4:11 cells assessed as MDM2 degradation at 100 nM preincubated with proteasome inhibitior MG132 for 2 hrs followed by compound addition measured after 4 hrs by Western blot analysis; format: cell-based
RS4-11 [16] = test: Induction of apoptosis in human RS4:11 cells assessed as early apoptotic cells at 100 nM after 24 hrs by Annexin-V-FITC/propidium iodide staining based flow cytometry relative to control; format: functional
[17] = molecular target: T1, Protein cereblon/E3 ubiquitin-protein ligase Mdm2; test: Protac activity at CRBN/MDM2 in human RS4:11 cells assessed as maximal MDM2 degradation level at 100 nM after 24 hrs by Western blot analysis relative to control; format: cell-based
RS4-11 [18] = test: Induction of apoptosis in human RS4:11 cells assessed as late apoptotic cells at 100 nM after 24 hrs by Annexin-V-FITC/propidium iodide staining based flow cytometry relative to control; format: functional
RS4-11 [19] = test: Antiproliferative activity against human RS4:11 cells assessed as reduction in cell viability after 48 hrs by MTT assay; format: functional, cell-based; conditions: RS4-11, 48 h
[20] = molecular target: T1, Protein cereblon/E3 ubiquitin-protein ligase Mdm2; test: Protac activity at CRBN/MDM2 in human RS4:11 cells assessed as upregulation of MDM2 expression at 100 nM measured after 6 hrs by qRT-PCR method; format: cell-based
[21] = molecular target: T1, Protein cereblon/E3 ubiquitin-protein ligase Mdm2; test: Protac activity at CRBN/MDM2 in human RS4:11 cells assessed as effect on TP53 expression at 30 to 100 nM measured after 6 hrs by qRT-PCR method; format: cell-based
[22] = molecular target: T1, Protein cereblon/E3 ubiquitin-protein ligase Mdm2; test: Protac activity at CRBN/MDM2 in human RS4:11 cells assessed as increase in P21 expression at 100 nM to 1 uM by Westernblot analysis; format: cell-based
RS4-11 [23] = test: Induction of apoptosis in human RS4:11 cells assessed as late apoptotic cells at 1000 nM after 24 hrs by Annexin-V-FITC/propidium iodide staining based flow cytometry relative to control; format: functional
RS4-11 [24] = test: Induction of apoptosis in human RS4:11 cells assessed as necrotic cells at 1000 nM after 24 hrs by Annexin-V-FITC/propidium iodide staining based flow cytometry relative to control; format: functional
[25] = molecular target: T1, Protein cereblon/E3 ubiquitin-protein ligase Mdm2; test: as §1, with “((4S,5R)-2-(4-(tert-butyl)-2-ethoxyphenyl)-4,5-bis(4-chlorophenyl)-4,5-dihydro-1H-imidazol-1-yl)(piperazin-1-yl)methanone” for “lenalidomide”; format: cell-based
RS4-11 [26] = test: Induction of apoptosis in human RS4:11 cells by Annexin-V-FITC/propidium iodide staining based flow cytometry relative to control; format: functional, cell-based
[27] = molecular target: T1, Protein cereblon/E3 ubiquitin-protein ligase Mdm2; test: Protac activity at CRBN/MDM2 in human RS4:11 cells assessed as increase in accumulation of p53 at 100 nM by Western blot analysis; format: cell-based
RS4-11 [28] = test: Induction of apoptosis in human RS4:11 cells assessed as caspase3 expression at 100 nM to 1 uM by Westernblot analysis; format: functional, cell-based
RS4-11 [29] = test: Induction of apoptosis in human RS4:11 cells assessed as viable cells at 1000 nM after 24 hrs by Annexin-V-FITC/propidium iodide staining based flow cytometry relative to control; format: functional; conditions: RS4-11, 24 h, read-out: Activity
RS4-11 [30] = test: Induction of apoptosis in human RS4:11 cells assessed as necrotic cells at 10 nM after 24 hrs by Annexin-V-FITC/propidium iodide staining based flow cytometry relative to control; format: functional
[31] = molecular target: T1, Protein cereblon/E3 ubiquitin-protein ligase Mdm2; test: Protac activity at CRBN/MDM2 in human RS4:11 cells assessed MDM2 degradation at 10 to 100 nM measured after 1 hr by immunoblot analysis; format: cell-based
[32] = molecular target: T1, Protein cereblon/E3 ubiquitin-protein ligase Mdm2; test: Protac activity at CRBN/MDM2 in human RS4:11 cells assessed as PARP cleavage after 6 hrs by Western blot analysis; format: cell-based
RS4-11 [33] = test: Induction of apoptosis in human RS4:11 cells assessed as viable cells at 10 nM after 24 hrs by Annexin-V-FITC/propidium iodide staining based flow cytometry relative to control; format: functional; conditions: RS4-11, 24 h, read-out: Activity
[34] = molecular target: T1, Protein cereblon/E3 ubiquitin-protein ligase Mdm2; test: Protac activity at CRBN/MDM2 in human RS4:11 cells assessed as upregulation of P21 expression at 100 nM measured after 6 hrs by qRT-PCR method; format: cell-based
[35] = molecular target: T1, Protein cereblon/E3 ubiquitin-protein ligase Mdm2; test: Protac activity at CRBN/MDM2 in human RS4:11 cells assessed as upregulation of MDM2 expression at 1 uM measured after 6 hrs by qRT-PCR method; format: cell-based
[36] = molecular target: T1, Protein cereblon/E3 ubiquitin-protein ligase Mdm2; test: Protac activity at CRBN/MDM2 in human RS4:11 cells assessed as upregulation of P21 expression at 1 uM measured after 6 hrs by qRT-PCR method; format: cell-based
[37] = molecular target: T1, Protein cereblon/E3 ubiquitin-protein ligase Mdm2; test: Protac activity at CRBN/MDM2 in human RS4:11 cells assessed as effect on TP53 expression at 1 uM measured after 6 hrs by qRT-PCR method; format: cell-based

Structure (SMILES): CCOc1cc(C(C)(C)C)ccc1C1=N[C@@H](c2ccc(Cl)cc2)[C@@H](c2ccc(Cl)cc2)N1C(=O)N1CCN(CCCC#Cc2cccc3c2CN(C2CCC(=O)NC2=O)C3=O)CC1 (some centres undefined)
Activity (RS4-11 [1]): Active

Activity [2]: Dose-dependent effect
DC50 [2]: 23 nM
Activity [5]: Active
Activity [6]: Active
Activity [8]: Active
Activity [10]: Active
Activity [11]: Tde
Activity [12]: Active
Activity [15]: Active
Emax [17]: 90%
IC50 (RS4-11 [19]): 3.2 nM
Activity [20]: Active
Activity [21]: inactive
Activity [22]: Active
Activity [25]: Active
Activity [27]: Active
Activity [31]: Active
Activity [32]: Active
Activity [34]: Active
Structure (SMILES): CCOc1cc(C(C)(C)C)ccc1C1=N[C@@H](c2ccc(Cl)cc2)[C@@H](c2ccc(Cl)cc2)N1C(=O)N1CCN(CC#Cc2cccc3c2CN(C2CCC(=O)NC2=O)C3=O)CC1 (some centres undefined)
viability at 0.1 µM (RS4-11 [3]): 26%
Activity (RS4-11 [4]): 0.1%
Activity (RS4-11 [7]): 27.1%
Activity (RS4-11 [9]): 10.5%
Activity (RS4-11 [13]): Active
Activity (RS4-11 [14]): 10.1%
Activity (RS4-11 [16]): 22.3%
Activity (RS4-11 [18]): 51.6%
Activity (RS4-11 [1]): Active
Activity (RS4-11 [23]): 43.9%
Activity (RS4-11 [24]): 0.27%
Activity (RS4-11 [26]): Dose-dependent effect
Activity (RS4-11 [28]): Active
viability at 1 µM (RS4-11 [29]): 28.8%
Activity (RS4-11 [30]): 0.2%
viability at 0.01 µM (RS4-11 [33]): 79.2%

Activity [8]: Active
Structure (SMILES): CCOc1cc(C(C)(C)C)ccc1C1=N[C@H](c2ccc(Cl)cc2)[C@H](c2ccc(Cl)cc2)N1C(=O)N1CCN(C(=O)CNC(=O)CCCC#Cc2cccc3c2CN(C2CCC(=O)NC2=O)C3=O)CC1 (some centres undefined)

Activity [8]: Active
Activity [10]: Active
IC50 (RS4-11 [19]): 7.2 nM
Activity [27]: Active
Structure (SMILES): CCOc1cc(C(C)(C)C)ccc1C1=NC(c2ccc(Cl)cc2)C(c2ccc(Cl)cc2)N1C(=O)N1CCN(CC#Cc2cccc3c2CN(C2CCC(=O)NC2=O)C3=O)CC1 (racemic)
Activity (RS4-11 [1]): Active

Activity [35]: Active
Activity [36]: Active
Activity [37]: inactive
Structure (SMILES): CCOc1cc(C(C)(C)C)ccc1C1=N[C@@H](c2ccc(Cl)cc2)[C@@H](c2ccc(Cl)cc2)N1C(=O)N1CCNCC1
viability at 0.1 µM (RS4-11 [3]): 84.4%
Activity (RS4-11 [4]): 0%
Activity (RS4-11 [7]): 13.7%
Activity (RS4-11 [9]): 10.5%
Activity (RS4-11 [14]): 5.37%
Activity (RS4-11 [16]): 10.1%
Activity (RS4-11 [18]): 5.45%
Activity (RS4-11 [23]): 16.3%
Activity (RS4-11 [24]): 0.46%
viability at 1 µM (RS4-11 [29]): 69.5%
Activity (RS4-11 [30]): 0.00582%
viability at 0.01 µM (RS4-11 [33]): 84.2%

Activity [8]: Active
Structure (SMILES): CCOc1cc(C(C)(C)C)ccc1C1=N[C@@H](c2ccc(Cl)cc2)[C@@H](c2ccc(Cl)cc2)N1C(=O)N1CCN(C(=O)CCC#Cc2cccc3c2CN(C2CCC(=O)NC2=O)C3=O)CC1 (some centres undefined)

Structure (SMILES): CCOc1cc(C(C)(C)C)ccc1C1=N[C@@H](c2ccc(Cl)cc2)[C@@H](c2ccc(Cl)cc2)N1C(=O)N1CCN(CCC#Cc2cccc3c2CN(C2CCC(=O)NC2=O)C3=O)CC1 (some centres undefined)
Activity (RS4-11 [1]): Active
